Data as given in patent publication US20030187240A1, “2' -modified oligonucleotides” (ISIS Pharmaceuticals, Inc., priority 1990, published 2003).
Entries after “also recorded” stand apart in the source; their conditions may differ. Strand notation (5' to 3'): a small letter for the sugar, then the base; units joined by * are phosphorothioate-linked, units joined directly phosphodiester-linked; [ ] holds rarer units or linkages, { } end groups; capitals alone tell only the bases. [OPr] = 2'-O-propyl ribonucleotide; d = 2'-deoxy (DNA); m = 2'-O-methyl

Tests used:
Type in all cases: cell-based, human
[1] = tested on: PKC-α mRNA; test: PKC-α mRNA levels by Northern blot analysis; details: FIGS. 3, 4 and 5; result in words
Method: Oligonucleotides having SEQ ID NO: 4 were synthesized as uniformly phosphorothioate chimeric oligonucleotides having a centered deoxy gap of varying lengths flanked by 2′-O-methylated regions. These oligonucleotides (500 nM concentration) were tested for effects on PKC-α mRNA levels by Northern blot analysis.

[2] = tested on: codon-12 point mutation of mutant (activated) H-ras RNA
[3] = tested on: ras mRNA; test: Northern blot analysis of ras expression in T24 cells; parameters: inhibition of ras expression / decrease of ras mRNA: concentration or dose not given beside the values
Method: The human urinary bladder cancer cell line T24 was obtained from the American Type Culture Collection (Rockville Md.). Cells were grown in McCoy's 5A medium with L-glutamine (GIBCO-BRL, Gaithersburg, Md.), supplemented with 10% heat-inactivated fetal calf serum and 50 U/ml each of penicillin and streptomycin. Cells were seeded on 100 mm plates. When they reached 70% confluency, they were treated with oligonucleotide. Plates were washed with 10 ml prewarmed PBS and 5 ml of OptiMEM (GIBCO) reduced-serum medium containing 2.5 μl DOTMA. Oligonucleotide was then added to the desired concentration. After 4 hours of treatment, the medium was replaced with McCoy's medium. Cells were harvested 48 hours after oligonucleotide treatment and RNA was isolated using a standard CsCl purification method. [Kingston in Current Protocols in Molecular Biology, F. M. Ausubel, R. Brent, R. E. Kingston, D. D. Moore, J. A. Smith, J. G. Seidman and K. Strahl, Eds., John Wiley and Sons, New York.] The human epithelioid carcinoma cell line HeLa 229 was obtained from the American Type Culture Collection (Bethesda, Md.). HeLa cells were maintained as monolayers on 6-well plates in Dulbecco's Modified Eagle's medium (DMEM) supplemented with 10 fetal bovine serum and 100 U/ml penicillin. Treatment with oligonucleotide and isolation of RNA were essentially as described above for T24 cells.
Northern hybridization: 10 μg of each RNA was electrophoresed on a 1.2% agarose/formaldehyde gel and transferred overnight to GeneBind 45 nylon membrane (Pharmacia LKB, Piscataway, N.J.) using standard methods. [Kingston in Current Protocols in Molecular Biology, F. M. Ausubel, R. Brent, R. E. Kingston, D. D. Moore, J. A. Smith, J. G. Seidman and K. Strahl, Eds., John Wiley and Sons, New York.] RNA was UV-crosslinked to the membrane. Double-stranded ^32P-labeled probes were synthesized using the Prime a Gene labeling kit (Promega, Madison Wis.). The ras probe was a SalI-NheI fragment of a cDNA clone of the activated (mutant) H-ras mRNA having a GGC-to-GTC mutation at codon-12. The control probe was G3PDH. Blots were prehybridized for 15 minutes at 68° C. with the QuickHyb hybridization solution (Stratagene, La Jolla, Calif.). The heat-denatured radioactive probe (2.5×10^6 counts/2 ml hybridization solution) mixed with 100 μl of 10 mg/ml salmon sperm DNA was added and the membrane was hybridized for 1 hour at 68° C. The blots were washed twice for 15 minutes at room temperature in 2×SSC/0.1% SDS and once for 30 minutes at 60° C. with 0.1×SSC/0.1%SDS. Blots were autoradiographed and the intensity of signal was quantitated using an ImageQuant PhosphorImager (Molecular Dynamics, Sunnyvale, Calif.). Northern blots were first hybridized with the ras probe, then stripped by boiling for 15 minutes in 0.1×SSC/0.1%SDS and rehybridized with the control G3PDH probe to check for correct sample loading.

Substance: 3522 (AsAsAsAsCsGsTsCsAsGsCsCsAsTsGsGsTsCsCsC; 2'-O-methyl/deoxy chimeric, phosphorothioate, as printed in the source, key not given here) [Oligonucleotide 3522]
- effect on PKC-α mRNA levels [1]: show reduction of PKC-α mRNA

Substance: 3975 (CCACACCGACGGCGCCC; chimeric 2'-O-methyl phosphorothioate, pattern not given here) [Oligonucleotide 3975]
- inhibition of ras-luciferase activity [2]: neither of the oligonucleotides having either the one or the three 2′-deoxy-erythro-pentofuranosyl nucleotide subsequences showed significant activity

Substance: 3979 (CCACACCGACGGCGCCC; chimeric 2'-O-methyl phosphorothioate, pattern not given here) [Oligonucleotide 3979]
- activity at the highest concentration dose [2]: measurable activity
- inhibition of ras-luciferase activity [2]: neither of the oligonucleotides having either the one or the three 2′-deoxy-erythro-pentofuranosyl nucleotide subsequences showed significant activity

Substance: 3980 (CCACACCGACGGCGCCC; chimeric 2'-O-methyl phosphorothioate, pattern not given here) [Oligonucleotide 3980]
- inhibition of ras-luciferase activity [2]: next greatest inhibition
- inhibition of ras expression / decrease of ras mRNA [3]: 61%

Substance: 3984 (CCACACCGACGGCGCCC; chimeric 2'-O-methyl phosphorothioate, pattern not given here) [Oligonucleotide 3984]
- inhibition of ras-luciferase activity [2]: greater inhibition of ras-luciferase activity than did oligonucleotide 2570
- inhibition of ras expression / decrease of ras mRNA [3]: 81%

Substance: 4998 (CTTATATTCCGTCATCGCTC; sugars from the 5' end m6 d7 m7, all phosphorothioate, methylation of C and T or U not given here) [Oligonucleotide 4998]
- inhibition of ras expression / decrease of ras mRNA [3]: 84%

Substance: 5352 (AAAACGTCAGCCATGGTCCC; sugars from the 5' end m6 d6 m8, all phosphorothioate, methylation of C and T or U not given here) [Oligonucleotide 5352]
- effect on PKC-α mRNA levels [1]: show reduction of PKC-α mRNA; also recorded: most active

Substance: 6632 (dT*dT*dC*dT*dC*dG*dC*dT*dG*dG*dT*dG*dA*dG*dT*dT*dT*dC; antisense) [Oligonucleotide 6632]
- effect on PKC-α mRNA levels [1]: most active in reducing PKC-α mRNA levels

Substance: 6653 (TTCTCGCTGGTGAGTTTC; antisense; sugars from the 5' end [OPr]3 d11 [OPr]4, all phosphorothioate, methylation of C not given here) [Oligonucleotide 6653]
- effect on PKC-α mRNA levels [1]: most active in reducing PKC-α mRNA levels

Substance: 7008 (mA*mAmAmAmCdG*dT*dC*dA*dG*dC*dC*dA*dT*dGdGdTdCdC*dC) [Oligonucleotide 7008]
- effect on PKC-α mRNA levels [1]: show reduction of PKC-α mRNA

Substance: 7082 (dT*dC*dT*dC*dG*dC*dT*dG*dG*dT*dG*dA*dG*dT*dT*dT*dC; antisense) [Oligonucleotide 7082]
- effect on PKC-α mRNA levels [1]: most active in reducing PKC-α mRNA levels

Substance: CTTATATTCCGTCATCGCTC [Oligonucleotide 2502]
- inhibition of ras expression / decrease of ras mRNA [3]: 26%

Substance: C^MC^MA^M C^MA^MC^M CdGdAd CdGdG^M C^MG^MC^M C^MC^M [Oligonucleotide 3980]
- inhibition of ras expression in T24 cells ([3]; result in words): inhibited ras expression

Substance: CsCsAsCsAsCsCsGsAoCsGsGsCsGsCsCsC [Oligonucleotide 4248]
- effect on ras expression (ras-luciferase reporter system), chimeric backbone-modified oligonucleotides [2]: just as active as a full P═S molecule

Substance: oligonucleotide with the 2′-O-propyl diester flanking regions: SEQ ID NO: 1, phosphorothioate in the 7-base deoxy gap only, phosphodiester 2′-O-propyl flanking regions (DNA CCACACCGACGGCGCCC; 2'-O-propyl flanks, phosphorothioate gap, chemistry not fully specified)
- effect on ras expression (ras-luciferase reporter system), chimeric backbone-modified oligonucleotides [2]: able to inhibit ras expression
